≈ marks a conversion by molar mass, not a printed value. Where two headings read alike, the source gives them in different places.
Tests used:
C. albicans ATCC10231 = experiment: Broth microdilution antimicrobial assay (MIC/MMC); format: cell-based, Candida albicans; conditions: for MIC: 37 °C, 48 h; for MMC: no growth after sub-culturing
Method: (§1) The microorganisms used in this study include four bacterial (Staphylococcus aureus ATCC25923, methicillin sensitive S. aureus MSSA1, methicillin resistant S. aureus MRSA3 and methicillin resistant S. aureus MRSA4) and three yeast strains (Candida albicans ATCC10231, Candida tropicalis PK233 and Cryptococcus neoformans H99). These microorganisms were taken from our laboratory collection. The fungal and bacterial strains were grown at 37 °C and maintained on Sabouraud Dextrose Agar (SDA, Conda, Madrid, Spain) and nutrient agar (NA, Conda) slants respectively.
(§2) The inocula of bacteria and yeasts were prepared from overnight cultures as previously described. Absorbance was read spectrophotometrically at 530 nm and 600 nm for yeasts and bacteria respectively. The final concentrations of microbial suspensions were 2.5 × 10^5 cells/mL for yeasts and 10^6 CFU/mL for bacteria.
(§3) The antimicrobial activity was evaluated by determining the minimum inhibitory concentrations (MICs). MICs of extracts and compounds were determined by broth micro dilution. Each test sample was dissolved in 10% v/v aqueous dimethylsulfoxide (DMSO) to give a stock solution. This was serially diluted two-fold in Mueller-Hinton Broth (MHB) for bacteria and Sabouraud Dextrose Broth (SDB) for fungi to obtain a concentration range of 4096 to 0.25 μg/mL. Then, 100 μL of each sample concentration was added to respective wells (96-well micro plate) containing 90 μL of SDB/ MHB and 10 μL of inoculum to give final concentration ranges of 2048 to 4 μg/mL (for extracts) and 256 to 0.125 μg/mL (for compounds). Dilutions of nystatin (Sigma-Aldrich, Steinheim, Germany) and ciprofloxacin (Sigma-Aldrich, Steinheim, Germany) were used as positive controls for yeasts and bacteria respectively. Broth with 10 μL of DMSO was used as negative control. The cultured micro plates were covered; then, the contents of each well were mixed thoroughly using a plate shaker (Flow Laboratory, Germany) and incubated at 37 °C for 24 h (bacteria) and 48 h (yeasts) under shaking. After the incubation period, MICs were assessed visually and were taken as the lowest sample concentration at which there was no growth or virtually no growth. The lowest concentration that yielded no growth after the sub-culturing was considered as the minimum microbicidal concentrations (MMCs). All the tests were performed in triplicate.

C. tropicalis PK233 = experiment: Broth microdilution antimicrobial assay (MIC/MMC); format: cell-based, Candida tropicalis; conditions: for MIC: 37 °C; for MIC / MFC: 48 h
Method: as §1, §2, §3

[1] = tested on: bacterial and fungal strains; experiment: Broth microdilution MIC, range over all tested strains; format: cell-based
Method: as §1, §2, §3

S. aureus MRSA3 = experiment: Broth microdilution antimicrobial assay (MIC/MMC); format: cell-based, Staphylococcus aureus; conditions: S. aureus MRSA3; for MBC / MIC: Staphylococcus aureus, 24 h; for MBC: no growth after sub-culturing; for MIC: 37 °C
Method: as §1, §2, §3

S. aureus ATCC25923 = experiment: Broth microdilution antimicrobial assay (MIC/MMC); format: cell-based, Staphylococcus aureus; conditions: for MIC / MBC: Staphylococcus aureus, 24 h; for MIC: 37 °C; for MBC: no growth after sub-culturing
Method: as §1, §2, §3

S. aureus MSSA1 = experiment: Broth microdilution antimicrobial assay (MIC/MMC); format: cell-based, Staphylococcus aureus; conditions: for MIC / MBC: Staphylococcus aureus, 24 h; for MIC: 37 °C; for MBC: no growth after sub-culturing
Method: as §1, §2, §3

S. aureus MRSA4 = experiment: Broth microdilution antimicrobial assay (MIC/MMC); format: cell-based, Staphylococcus aureus; conditions: S. aureus MRSA4; for MBC / MIC: Staphylococcus aureus, 24 h; for MBC: no growth after sub-culturing; for MIC: 37 °C
Method: as §1, §2, §3

C. neoformans H99 = experiment: Broth microdilution antimicrobial assay (MIC/MMC); format: cell-based, Cryptococcus neoformans; conditions: for MIC: 37 °C; for MIC / MFC: 48 h
Method: as §1, §2, §3

[2] = DPPH free radical scavenging assay; conditions: Fig. 3; vitamin C standard
Method: The free radical scavenging activity of extracts and compounds was evaluated according to described methods. The EC50 (μg/ml), which is the amount of sample necessary to inhibit by 50% the absorbance of free radical DPPH was calculated. Vitamin C was used as a standard control. All the analyses were carried out in triplicate.

[3] = Ferric reducing antioxidant power (FRAP) assay; conditions: Perl's Prussian blue at 700 nm; Fig. 2; BHT positive control
Method: The FRAP was determined by the Fe^3+-Fe^2+ transformation in the presence of extracts and compounds as previously described. The Fe^2+ was monitored by measuring the formation of Perl’s Prussian blue at 700 nm. Butylated hydroxytoluene (BHT) was used as a positive control. All the tests were performed in triplicate.

[4] = Candida albicans, read-out: MIC
[5] = Candida tropicalis, read-out: MIC
[6] = Candida tropicalis, no growth after sub-culturing
[7] = range over all bacterial and fungal strains, read-out: MIC
[8] = Cryptococcus neoformans, read-out: MIC
[9] = Cryptococcus neoformans, no growth after sub-culturing

Row | Compound | MMC/MIC (C. albicans ATCC10231) | MIC (C. albicans ATCC10231; [4]) [µg/mL] | MMC (C. albicans ATCC10231) [µg/mL] | MMC/MIC (C. tropicalis PK233) | MIC (C. tropicalis PK233; [5]) [µg/mL] | MFC (C. tropicalis PK233; [6]) [µg/mL] | MMC/MIC (S. aureus MRSA3) | MBC (S. aureus MRSA3) [µg/mL] | MIC (S. aureus MRSA3) [µg/mL] | MMC/MIC (S. aureus ATCC25923) | MIC (S. aureus ATCC25923) [µg/mL] | MBC (S. aureus ATCC25923) [µg/mL] | MMC/MIC (S. aureus MSSA1) | MIC (S. aureus MSSA1) [µg/mL] | MBC (S. aureus MSSA1) [µg/mL] | MMC/MIC (S. aureus MRSA4) | MBC (S. aureus MRSA4) [µg/mL] | MIC (S. aureus MRSA4) [µg/mL] | MIC (C. neoformans H99; [8]) [µg/mL] | MFC (C. neoformans H99; [9]) [µg/mL] | further results
1 | O=C(C=Cc1ccc(O)cc1)OCC1OC(Oc2c(-c3ccc(O)cc3)oc3cc(O)cc(O)c3c2=O)C(O)C(O)C1O (stereo not drawn) [Compound 6, trans-tiliroside] | 1 | 64 (≈ 108 µM) | 64 | 1 | 64 (≈ 108 µM) | 64 (≈ 108 µM) | 2 | 128 (≈ 215 µM) | 64 (≈ 108 µM) | 2 | 32 (≈ 53.8 µM) | 64 (≈ 108 µM) | 1 | 64 (≈ 108 µM) | 64 (≈ 108 µM) | 1 | 128 (≈ 215 µM) | 128 (≈ 215 µM) | 64 (≈ 108 µM) | 128 (≈ 215 µM) | MIC [1, 7]: 32 to 128 µg/mL (≈ 53.8 to 215 µM); MMC/MIC (C. neoformans H99): 2
2 | O=C(O)c1cn(C2CC2)c2cc(N3CCNCC3)c(F)cc2c1=O [Ciprofloxacin, reference compound] | – | – | – | – | – | – | 1 | 16 (≈ 48.3 µM) | 16 (≈ 48.3 µM) | 1 | 1 (≈ 3.02 µM) | 1 (≈ 3.02 µM) | 1 | 1 (≈ 3.02 µM) | 1 (≈ 3.02 µM) | 1 | 32 (≈ 96.6 µM) | 32 (≈ 96.6 µM) | – | – | –
3 | C=C(C)[C@@H]1CC[C@]2(C)CC[C@]3(C)[C@H](CC[C@@H]4[C@@]5(C)CC[C@H](O)C(C)(C)[C@@H]5CC[C@]43C)[C@@H]12 [Compound 9, lupeol] | – | > 256 | – | – | 256 (≈ 600 µM) | > 256 | – | > 256 | > 256 | – | 256 (≈ 600 µM) | > 256 | – | 256 (≈ 600 µM) | > 256 | – | > 256 | > 256 | 256 (≈ 600 µM) | > 256 | DPPH radical-scavenging activity (in words) [2]: not active; reducing power (FRAP, in words) [3]: not active
4 | CC[C@H](CC[C@@H](C)[C@H]1CCC2C3CC=C4C[C@@H](O[C@@H]5O[C@H](CO)[C@@H](O)[C@H](O)[C@H]5O)CC[C@]4(C)C3CC[C@@]21C)C(C)C (stereo partly drawn) [Compound 4, sitosterol-3-O-β-D-glucopyranoside] | – | 256 (≈ 444 µM) | > 256 | – | 256 (≈ 444 µM) | > 256 | – | > 256 | > 256 | – | > 256 | > 256 | – | > 256 | > 256 | – | > 256 | > 256 | 128 (≈ 222 µM) | > 256 | DPPH radical-scavenging activity (in words) [2]: not active; reducing power (FRAP, in words) [3]: not active
5 | CC1(C)CC[C@]2(C(=O)O)CC[C@]3(C)C(=CC[C@@H]4[C@@]5(C)CC[C@H](O)C(C)(C)[C@@H]5CC[C@]43C)[C@@H]2C1 [Compound 13, oleanolic acid] | – | – | – | – | – | – | – | – | – | – | – | – | – | – | – | – | – | – | – | – | DPPH radical-scavenging activity (in words) [2]: not active; reducing power (FRAP, in words) [3]: not active
6 | C[C@H]1[C@H](C)CC[C@]2(C(=O)O)CC[C@]3(C)C(=CC[C@@H]4[C@@]5(C)CC[C@H](O)C(C)(C)[C@@H]5CC[C@]43C)[C@H]12 [Compound 3, ursolic acid] | – | 256 (≈ 561 µM) | > 256 | – | 256 (≈ 561 µM) | > 256 | – | > 256 | 128 (≈ 280 µM) | – | 256 (≈ 561 µM) | > 256 | – | 128 (≈ 280 µM) | > 256 | – | > 256 | 128 (≈ 280 µM) | 128 (≈ 280 µM) | > 256 | antimicrobial activity (in words) ([1]; all the tested bacterial and fungal species): active against all the tested bacterial and fungal species; MIC [1, 7]: 128 to 256 µg/mL (≈ 280 to 561 µM)
7 | C[C@@H]1[C@H](O)[C@@H](C)/C=C/C=C/CC/C=C/C=C/C=C/C=C/C(O[C@H]2O[C@H](C)[C@@H](O)[C@H](N)[C@@H]2O)CC2O[C@](O)(CC(O)C(O)CCC(O)CC(O)CC(O)CC(=O)O[C@H]1C)CC(O)C2C(=O)O (stereo partly drawn) [nystatin, reference compound] | 1 | – | 2 | 2 | – | – | – | – | – | – | – | – | – | – | – | – | – | – | – | – | MIC (C. albicans ATCC10231): 2 µg/mL (≈ 2.16 µM); MIC (C. tropicalis PK233): 0.5 µg/mL (≈ 0.54 µM); MMC (C. tropicalis PK233; no growth after sub-culturing): 1 µg/mL; MMC/MIC (C. neoformans H99): 1; MIC (C. neoformans H99): 1 µg/mL (≈ 1.08 µM); MMC (C. neoformans H99; no growth after sub-culturing): 1 µg/mL
8 | O=c1cc(-c2ccc(O)cc2)oc2c([C@@H]3O[C@H](CO)[C@@H](O)[C@H](O)[C@H]3O)c(O)cc(O)c12 [Compound 5, vitexin] | 2 | 128 (≈ 296 µM) | 256 | 2 | 64 (≈ 148 µM) | 128 (≈ 296 µM) | 2 | 128 (≈ 296 µM) | 64 (≈ 148 µM) | 2 | 64 (≈ 148 µM) | 128 (≈ 296 µM) | 2 | 64 (≈ 148 µM) | 128 (≈ 296 µM) | 2 | 256 (≈ 592 µM) | 128 (≈ 296 µM) | 128 (≈ 296 µM) | 128 (≈ 296 µM) | MIC [1]: 64 to 128 µg/mL (≈ 148 to 296 µM); MMC/MIC (C. neoformans H99): 1
